According to the supplement of paper PMC10307832:

Assays:
Assay in all cases: relative viability (nuclei count vs DMSO), 5 days (fraction); higher = more cells survive
201T = tested on: 201T
Procedure, shortened: (§1)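 A single step with final 0.05% Triton X-100, 1% formaldehyde and 1 ug/ml Hoechst fixed the cells and stained nuclei 5 days after treatment. Lung cancer cell lines in 1536-well plates had been treated by pin tool the day after seeding with one drug alone or a fixed anchor-drug dose plus five library-drug doses (not always all listed) in √10 steps, and nuclei were counted on 4× images. Relative viability is the ratio of nuclei in treated wells to nuclei in vehicle wells, taken as the median of duplicate plates.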

ABC-1 = tested on: ABC-1
Procedure, shortened: as §1

CAL-12T = tested on: CAL-12T
Procedure, shortened: as §1

COR-L23 = tested on: COR-L23
Procedure, shortened: as §1

ChaGo-K-1 = tested on: ChaGo-K-1
Procedure, shortened: as §1

HCC-44 = tested on: HCC-44
Procedure, shortened: as §1

HOP-62 = tested on: HOP-62
Procedure, shortened: as §1

LC-2-ad = tested on: LC-2-ad
Procedure, shortened: as §1

LCLC-103H = tested on: LCLC-103H
Procedure, shortened: as §1

NCI-H1355 = tested on: NCI-H1355
Procedure, shortened: as §1

NCI-H1395 = tested on: NCI-H1395
Procedure, shortened: as §1

NCI-H1651 = tested on: NCI-H1651
Procedure, shortened: as §1

NCI-H1666 = tested on: NCI-H1666
Procedure, shortened: as §1

NCI-H1993 = tested on: NCI-H1993
Procedure, shortened: as §1

NCI-H2085 = tested on: NCI-H2085
Procedure, shortened: as §1

NCI-H2170 = tested on: NCI-H2170
Procedure, shortened: as §1

NCI-H2228 = tested on: NCI-H2228
Procedure, shortened: as §1

NCI-H2342 = tested on: NCI-H2342
Procedure, shortened: as §1

NCI-H2347 = tested on: NCI-H2347
Procedure, shortened: as §1

NCI-H23 = tested on: NCI-H23
Procedure, shortened: as §1

NCI-H322M = tested on: NCI-H322M
Procedure, shortened: as §1

NCI-H520 = tested on: NCI-H520
Procedure, shortened: as §1

NCI-H647 = tested on: NCI-H647
Procedure, shortened: as §1

NCI-H661 = tested on: NCI-H661
Procedure, shortened: as §1

NCI-H838 = tested on: NCI-H838
Procedure, shortened: as §1

CCCCCCCCCCCC1=C(O)C(=O)C=C(O)C1=O [Embelin] + CCNC(=O)c1noc(-c2cc(C(C)C)c(O)cc2O)c1-c1ccc(CN2CCOCC2)cc1 [Luminespib] (partner 0.01 µM)
relative viability (201T; first compound 0.08 µM): 0.987
relative viability (201T; first compound 0.8 µM): 1.08
relative viability (201T; first compound 2.53 µM): 1.06
relative viability (201T; first compound 8 µM): 1.09
relative viability (ABC-1; first compound 0.08 µM): 0.546
relative viability (ABC-1; first compound 0.8 µM): 0.841
relative viability (ABC-1; first compound 2.53 µM): 0.913
relative viability (ABC-1; first compound 8 µM): 0.825
relative viability (CAL-12T; first compound 0.08 µM): 0.499
relative viability (CAL-12T; first compound 0.8 µM): 0.69
relative viability (CAL-12T; first compound 2.53 µM): 0.626
relative viability (CAL-12T; first compound 8 µM): 0.189
relative viability (COR-L23; first compound 0.08 µM): 0.773
relative viability (COR-L23; first compound 0.8 µM): 0.73
relative viability (COR-L23; first compound 2.53 µM): 0.911
relative viability (COR-L23; first compound 8 µM): 0.763
relative viability (ChaGo-K-1; first compound 0.08 µM): 0.529
relative viability (ChaGo-K-1; first compound 0.8 µM): 0.755
relative viability (ChaGo-K-1; first compound 2.53 µM): 0.776
relative viability (ChaGo-K-1; first compound 8 µM): 0.587
relative viability (HCC-44; first compound 0.08 µM): 1.04
relative viability (HCC-44; first compound 0.8 µM): 1.1
relative viability (HCC-44; first compound 2.53 µM): 1.37
relative viability (HCC-44; first compound 8 µM): 0.852
relative viability (HOP-62; first compound 0.08 µM): 0.971
relative viability (HOP-62; first compound 0.8 µM): 0.958
relative viability (HOP-62; first compound 2.53 µM): 1.07
relative viability (HOP-62; first compound 8 µM): 0.842
relative viability (LC-2-ad; first compound 0.08 µM): 0.892
relative viability (LC-2-ad; first compound 0.8 µM): 1.28
relative viability (LC-2-ad; first compound 2.53 µM): 1.1
relative viability (LC-2-ad; first compound 8 µM): 0.806
relative viability (LCLC-103H; first compound 0.08 µM): 1
relative viability (LCLC-103H; first compound 0.8 µM): 1.03
relative viability (LCLC-103H; first compound 2.53 µM): 1.14
relative viability (LCLC-103H; first compound 8 µM): 0.926
relative viability (NCI-H1355; first compound 0.08 µM): 0.764
relative viability (NCI-H1355; first compound 0.8 µM): 0.847
relative viability (NCI-H1355; first compound 2.53 µM): 0.837
relative viability (NCI-H1355; first compound 8 µM): 0.657
relative viability (NCI-H1395; first compound 0.08 µM): 0.741
relative viability (NCI-H1395; first compound 0.8 µM): 0.928
relative viability (NCI-H1395; first compound 2.53 µM): 0.783
relative viability (NCI-H1395; first compound 8 µM): 0.631
relative viability (NCI-H1651; first compound 0.08 µM): 0.953
relative viability (NCI-H1651; first compound 0.8 µM): 0.944
relative viability (NCI-H1651; first compound 2.53 µM): 0.977
relative viability (NCI-H1651; first compound 8 µM): 0.886
relative viability (NCI-H1666; first compound 0.08 µM): 1.04
relative viability (NCI-H1666; first compound 0.8 µM): 1.01
relative viability (NCI-H1666; first compound 2.53 µM): 1.04
relative viability (NCI-H1666; first compound 8 µM): 1.01
relative viability (NCI-H1993; first compound 0.08 µM): 0.848
relative viability (NCI-H1993; first compound 0.8 µM): 0.763
relative viability (NCI-H1993; first compound 2.53 µM): 1.04
relative viability (NCI-H1993; first compound 8 µM): 0.963
relative viability (NCI-H2085; first compound 0.08 µM): 0.458
relative viability (NCI-H2085; first compound 0.8 µM): 0.463
relative viability (NCI-H2085; first compound 2.53 µM): 0.469
relative viability (NCI-H2085; first compound 8 µM): 0.4
relative viability (NCI-H2170; first compound 0.08 µM): 0.701
relative viability (NCI-H2170; first compound 0.8 µM): 0.753
relative viability (NCI-H2170; first compound 2.53 µM): 0.397
relative viability (NCI-H2170; first compound 8 µM): 0.589
relative viability (NCI-H2228; first compound 0.08 µM): 0.148
relative viability (NCI-H2228; first compound 0.8 µM): 0.13
relative viability (NCI-H2228; first compound 2.53 µM): 0.228
relative viability (NCI-H2228; first compound 8 µM): 0.151
relative viability (NCI-H2342; first compound 0.08 µM): 0.758
relative viability (NCI-H2342; first compound 0.8 µM): 0.902
relative viability (NCI-H2342; first compound 2.53 µM): 0.826
relative viability (NCI-H2342; first compound 8 µM): 0.645
relative viability (NCI-H2347; first compound 0.08 µM): 0.73
relative viability (NCI-H2347; first compound 0.8 µM): 0.489
relative viability (NCI-H2347; first compound 2.53 µM): 0.686
relative viability (NCI-H2347; first compound 8 µM): 0.62
relative viability (NCI-H23; first compound 0.08 µM): 0.228
relative viability (NCI-H23; first compound 0.8 µM): 0.212
relative viability (NCI-H23; first compound 2.53 µM): 0.221
relative viability (NCI-H23; first compound 8 µM): 0.232
relative viability (NCI-H322M; first compound 0.08 µM): 0.951
relative viability (NCI-H322M; first compound 0.8 µM): 1.04
relative viability (NCI-H322M; first compound 2.53 µM): 1.19
relative viability (NCI-H322M; first compound 8 µM): 0.83
relative viability (NCI-H520; first compound 0.08 µM): 0.224
relative viability (NCI-H520; first compound 0.8 µM): 0.29
relative viability (NCI-H520; first compound 2.53 µM): 0.183
relative viability (NCI-H520; first compound 8 µM): 0.235
relative viability (NCI-H647; first compound 0.08 µM): 0.233
relative viability (NCI-H647; first compound 0.8 µM): 0.326
relative viability (NCI-H647; first compound 2.53 µM): 0.138
relative viability (NCI-H647; first compound 8 µM): 0.132
relative viability (NCI-H661; first compound 0.08 µM): 0.924
relative viability (NCI-H661; first compound 0.8 µM): 1
relative viability (NCI-H661; first compound 2.53 µM): 0.897
relative viability (NCI-H661; first compound 8 µM): 0.85
relative viability (NCI-H838; first compound 0.08 µM): 0.292
relative viability (NCI-H838; first compound 0.8 µM): 0.449
relative viability (NCI-H838; first compound 2.53 µM): 0.362
relative viability (NCI-H838; first compound 8 µM): 0.244
